13 compounds from patent US11739101B2, “Bifunctional degraders of hematopoietic progenitor kinase and therapeutic uses thereof” (Nurix Therapeutics, Inc., priority 2020, dated 2023) can be followed below.

The structures appear in SMILES notation. Bounds are passed on as bounds.

The target of this test is T1, HPK1 (Homo sapiens, UniProt Q92918).
T1 construct: A HiBiT tag was introduced by CRISPR on the N terminus of HPK1 in Jurkat cells; host or cells: Jurkat (ATCC TIB-152), monoclonal CRISPR HiBiT knock-in line
Description: HPK1 Cellular HiBiT Degradation Assay. The conditions noted are these: HiBiT-tagged HPK1 Jurkat cells, 24 hours, 10 uM to 0.1 nM; Dmax = 100 minus lowest % HPK1 remaining vs DMSO vehicle. Format: cell-based. The method, boiled down: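 Jurkat cells with CRISPR N-terminal HiBiT-tagged HPK1 were exposed to an 11-point 3.16-fold dilution series, 10 uM to 0.1 nM final, for 24 hours at 37° C./5% CO2. HPK1 was read by HiBiT lytic luminescence against DMSO as 100% and parental cells as background. Dmax is 100 minus the lowest % remaining from a four-parameter fit, with a parallel CellTiter-Glo viability check.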

T1 sequence (Q92918 whole entry): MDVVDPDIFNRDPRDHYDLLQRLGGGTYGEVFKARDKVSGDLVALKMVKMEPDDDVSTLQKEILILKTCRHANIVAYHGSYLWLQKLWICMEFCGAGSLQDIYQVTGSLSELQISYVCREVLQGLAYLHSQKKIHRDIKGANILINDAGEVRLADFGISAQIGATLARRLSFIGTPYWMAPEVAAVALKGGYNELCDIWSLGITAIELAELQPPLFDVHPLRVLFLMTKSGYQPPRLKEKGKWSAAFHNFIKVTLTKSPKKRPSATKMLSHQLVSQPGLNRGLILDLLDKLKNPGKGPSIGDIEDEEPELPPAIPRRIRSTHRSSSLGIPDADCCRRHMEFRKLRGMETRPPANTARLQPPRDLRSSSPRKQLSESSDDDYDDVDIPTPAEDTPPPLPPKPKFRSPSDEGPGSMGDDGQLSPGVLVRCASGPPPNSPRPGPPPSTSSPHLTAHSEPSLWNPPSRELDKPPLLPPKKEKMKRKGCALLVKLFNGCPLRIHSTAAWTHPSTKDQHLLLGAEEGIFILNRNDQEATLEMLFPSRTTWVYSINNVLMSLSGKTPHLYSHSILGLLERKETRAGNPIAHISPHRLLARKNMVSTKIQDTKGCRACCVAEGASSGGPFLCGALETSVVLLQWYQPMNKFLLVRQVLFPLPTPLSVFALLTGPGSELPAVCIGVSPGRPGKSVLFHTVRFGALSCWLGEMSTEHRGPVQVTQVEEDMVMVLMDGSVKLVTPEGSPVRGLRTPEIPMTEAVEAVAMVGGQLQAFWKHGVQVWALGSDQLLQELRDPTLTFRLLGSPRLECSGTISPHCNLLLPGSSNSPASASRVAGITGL

As to `Cc1cc(F)c(Nc2nc(-c3ccc4c(c3)N([C@H]3C[C@@H](N5CCCCC5)C3)C(=O)C43CCN(C(=O)C4CCN(CC5CCN(c6cccc7c6C(=O)N(C6CCC(=O)NC6=O)C7=O)CC5)C4)CC3)cc3ncn(C(C)C)c23)cc1C(=O)NC(C)C` (stereo partly shown) [Example 38, 5-[(6-{1′-[1-[(1-{2-[2,6-dioxopiperidin-3-yl]-1,3-dioxo-2,3-dihydro-1H-isoindol-4-yl}piperidin-4-yl)methyl]pyrrolidine-3-carbonyl]-2-oxo-1-[(1s,3s)-3-(piperidin-1-yl)cyclobutyl]-1,2-dihydrospiro[indole-3,4′-piperidin]-6-yl}-3-(propan-2-yl)-3H-imidazo[4,5-c]pyridin-4-yl)amino]-4-fluoro-2-methyl-N-(propan-2-yl)benzamide], the Dmax (as a rule, the largest share of the target that was removed) was > 65%.

Consider `Cc1cc(F)c(Nc2nc(-c3ccc4c(c3)N([C@H]3C[C@@H](N5CCCCC5)C3)C(=O)C43CCN(C(=O)C4CN(C(=O)C5CCN(c6ccc7c(c6)C(=O)N(C6CCC(=O)NC6=O)C7=O)CC5)C4)CC3)cc3ncn(C(C)C)c23)cc1C(=O)NC(C)C` (stereo partly shown) [Example 39, 5-[(6-{1′-[1-(1-{2-[2,6-dioxopiperidin-3-yl]-1,3-dioxo-2,3-dihydro-1H-isoindol-5-yl}piperidine-4-carbonyl)azetidine-3-carbonyl]-2-oxo-1-[(1s,3s)-3-(piperidin-1-yl)cyclobutyl]-1,2-dihydrospiro[indole-3,4′-piperidin]-6-yl}-3-(propan-2-yl)-3H-imidazo[4,5-c]pyridin-4-yl)amino]-4-fluoro-2-methyl-N-(propan-2-yl)benzamide], for which the Dmax was < 45%. Regarding `Cc1cc(F)c(Nc2nc(-c3ccc4c(c3)N([C@H]3C[C@@H](N5CCCCC5)C3)C(=O)C43CCN(C(=O)C4CCN(C(=O)C5CCN(c6ccc7c(c6)C(=O)N(C6CCC(=O)NC6=O)C7=O)CC5)C4)CC3)cc3ncn(C(C)C)c23)cc1C(=O)NC(C)C` (stereo partly shown) [Example 40], the Dmax was 45 to 65%. For the compound `Cc1cc(F)c(Nc2nc(-c3ccc4c(c3)N(C3CC(N5CCCCC5)C3)C(=O)C43CCN(C(=O)C4CCN(C(=O)C5CCN(c6ccc7c(c6)C(=O)N(C6CCC(=O)NC6=O)C7=O)CC5)CC4)CC3)cc3ncn(C(C)C)c23)cc1C(=O)NC(C)C` (stereo not shown) [Example 41, 5-[(6-{1′-[1-(1-{2-[2,6-dioxopiperidin-3-yl]-1,3-dioxo-2,3-dihydro-1H-isoindol-5-yl}piperidine-4-carbonyl)piperidine-4-carbonyl]-2-oxo-1-[(1s,3s)-3-(piperidin-1-yl)cyclobutyl]-1,2-dihydrospiro[indole-3,4′-piperidin]-6-yl}-3-(propan-2-yl)-3H-imidazo[4,5-c]pyridin-4-yl)amino]-4-fluoro-2-methyl-N-(propan-2-yl)benzamide], the “Cellular HPK1 HiBiT: Dmax (%)” value is given as “B (45%≤B≤65%)”. As to `Cc1cc(F)c(Nc2nc(-c3ccc4c(c3)N([C@H]3C[C@@H](N5CCCCC5)C3)C(=O)C43CCN(C(=O)C4CCN(C(=O)CN5CC6(CCN(c7ccc8c(c7)C(=O)N(C7CCC(=O)NC7=O)C8=O)CC6)C5)CC4)CC3)cc3ncn(C(C)C)c23)cc1C(=O)NC(C)C` (stereo partly shown) [Example 42, 5-{[6-(1′-{1-[2-(7-{2-[2,6-dioxopiperidin-3-yl]-1,3-dioxo-2,3-dihydro-1H-isoindol-5-yl}-2,7-diazaspiro[3.5]nonan-2-yl)acetyl]piperidine-4-carbonyl}-2-oxo-1-[(1s,3s)-3-(piperidin-1-yl)cyclobutyl]-1,2-dihydrospiro[indole-3,4′-piperidin]-6-yl)-3-(propan-2-yl)-3H-imidazo[4,5-c]pyridin-4-yl]amino}-4-fluoro-2-methyl-N-(propan-2-yl)benzamide], the Dmax was 45 to 65%.

As to `Cc1cc(F)c(Nc2nc(-c3ccc4c(c3)N([C@H]3C[C@@H](N5CCCCC5)C3)C(=O)C43CCN(CCOCCOCCOCCOCCOCCOCCOCCNc4cccc5c4C(=O)N(C4CCC(=O)NC4=O)C5=O)CC3)cc3ncn(C(C)C)c23)cc1C(=O)NC(C)C` (stereo partly shown) [Example 43, 5-[(6-{1′-[23-({2-[2,6-dioxopiperidin-3-yl]-1,3-dioxo-2,3-dihydro-1H-isoindol-4-yl}amino)-3,6,9,12,15,18,21-heptaoxatricosan-1-yl]-2-oxo-1-[(1s,3s)-3-(piperidin-1-yl)cyclobutyl]-1,2-dihydrospiro[indole-3,4′-piperidin]-6-yl}-3-(propan-2-yl)-3H-imidazo[4,5-c]pyridin-4-yl)amino]-4-fluoro-2-methyl-N-(propan-2-yl)benzamide], the maximal degradation (Dmax) was > 65%. On the same count and under the same terms, next, `Cc1cc(F)c(Nc2nc(-c3ccc4c(c3)N([C@H]3C[C@@H](N5CCCCC5)C3)C(=O)C43CCN(C(=O)CN4CCN(c5ccc(CC(=O)NCCNc6cccc7c6C(=O)N(C6CCC(=O)NC6=O)C7=O)cc5)CC4)CC3)cc3ncn(C(C)C)c23)cc1C(=O)NC(C)C` (stereo partly shown) [Example 44, 5-({6-[1′-(2-{4-[4-({[2-({2-[2,6-dioxopiperidin-3-yl]-1,3-dioxo-2,3-dihydro-1H-isoindol-4-yl}amino)ethyl]carbamoyl}methyl)phenyl]piperazin-1-yl}acetyl)-2-oxo-1-[(1s,3s)-3-(piperidin-1-yl)cyclobutyl]-1,2-dihydrospiro[indole-3,4′-piperidin]-6-yl]-3-(propan-2-yl)-3H-imidazo[4,5-c]pyridin-4-yl}amino)-4-fluoro-2-methyl-N-(propan-2-yl)benzamide]: 45 to 65%. The same measure, in the same setting: next, `Cc1cc(F)c(Nc2nc(-c3ccc4c(c3)N([C@H]3C[C@@H](N5CCCCC5)C3)C(=O)C43CCN(C(=O)C4CCN(CC5CCN(c6ccc7c(c6)C(=O)N(C6CCC(=O)NC6=O)C7=O)CC5)CC4)CC3)cc3ncn(C(C)C)c23)cc1C(=O)NC(C)C` (stereo partly shown) [Example 45, 5-{[6-(1′-{1-[(1-{2-[2,6-dioxopiperidin-3-yl]-1,3-dioxo-2,3-dihydro-1H-isoindol-5-yl}piperidin-4-yl)methyl]piperidine-4-carbonyl}-2-oxo-1-[(1s,3s)-3-(piperidin-1-yl)cyclobutyl]-1,2-dihydrospiro[indole-3,4′-piperidin]-6-yl)-3-(propan-2-yl)-3H-imidazo[4,5-c]pyridin-4-yl]amino}-4-fluoro-2-methyl-N-(propan-2-yl)benzamide]: > 65%; `Cc1cc(F)c(Nc2nc(-c3ccc4c(c3)N([C@H]3C[C@@H](N5CCCCC5)C3)C(=O)C43CCN(C(=O)CN4CCC5(CC4)CC(C(=O)NCCNc4cccc6c4C(=O)N(C4CCC(=O)NC4=O)C6=O)C5)CC3)cc3ncn(C(C)C)c23)cc1C(=O)NC(C)C` (stereo partly shown) [Example 46, N-(2-((2-(2,6-dioxopiperidin-3-yl)-1,3-dioxoisoindolin-4-yl)amino)ethyl)-7-(2-(6-(4-((2-fluoro-5-(isopropylcarbamoyl)-4-methylphenyl)amino)-3-isopropyl-3H-imidazo[4,5-c]pyridin-6-yl)-2-oxo-1-((1s,3s)-3-(piperidin-1-yl)cyclobutyl)spiro[indoline-3,4′-piperidin]-1′-yl)-2-oxoethyl)-7-azaspiro[3.5]nonane-2-carboxamide]: 45 to 65%. On the same count and under the same terms, next, `Cc1cc(F)c(Nc2nc(-c3ccc4c(c3)N([C@H]3C[C@@H](N5CCCCC5)C3)C(=O)C43CCN(C(=O)Cc4ccc(N5CCN(CC(=O)N[C@H](C(=O)N6C[C@H](O)C[C@H]6C(=O)N[C@@H](C)c6ccc(-c7scnc7C)cc6)C(C)(C)C)CC5)cc4)CC3)cc3ncn(C(C)C)c23)cc1C(=O)NC(C)C` [Example 47, (2S,4R)-1-[(2S)-2-(2-{4-[4-(2-{6-[4-({2-fluoro-4-methyl-5-[(propan-2-yl)carbamoyl]phenyl}amino)-3-(propan-2-yl)-3H-imidazo[4,5-c]pyridin-6-yl]-2-oxo-1-[(1s,3s)-3-(piperidin-1-yl)cyclobutyl]-1,2-dihydrospiro[indole-3,4′-piperidin]-1′-yl}-2-oxoethyl)phenyl]piperazin-1-yl}acetamido)-3,3-dimethylbutanoyl]-4-hydroxy-N-[(1S)-1-[4-(4-methyl-1,3-thiazol-5-yl)phenyl]ethyl]pyrrolidine-2-carboxamide]: > 65%; `Cc1cc(F)c(Nc2nc(-c3ccc4c(c3)N([C@H]3C[C@@H](N5CCCCC5)C3)C(=O)C43CCN(C(=O)CCC4CCCN(CC(=O)NC(C(=O)N5C[C@H](O)C[C@H]5C(=O)N[C@@H](C)c5ccc(-c6scnc6C)cc5)C(C)(C)C)C4)CC3)cc3ncn(C(C)C)c23)cc1C(=O)NC(C)C` (stereo partly drawn) [Example 48, (2S,4R)-1-((2S)-2-(2-(3-(3-(6-(4-((2-fluoro-5-(isopropylcarbamoyl)-4-methylphenyl)amino)-3-isopropyl-3H-imidazo[4,5-c]pyridin-6-yl)-2-oxo-1-((1s,3s)-3-(piperidin-1-yl)cyclobutyl)spiro[indoline-3,4′-piperidin]-1′-yl)-3-oxopropyl)piperidin-1-yl)acetamido)-3,3-dimethylbutanoyl)-4-hydroxy-N—((S)-1-(4-(4-methylthiazol-5-yl)phenyl)ethyl)pyrrolidine-2-carboxamide]: 45 to 65%. `Cc1cc(F)c(Nc2nc(-c3ccc4c(c3)N([C@H]3C[C@@H](N5CCCCC5)C3)C(=O)C43CCN(C(=O)C4CCN(C(=O)C5CCN(C(=O)CNc6cccc7c6C(=O)N(C6CCC(=O)NC6=O)C7=O)CC5)C4)CC3)cc3ncn(C(C)C)c23)cc1C(=O)NC(C)C` (stereo partly shown) [Example 49] returned a Dmax of 45 to 65%. On the same count and under the same terms, for `Cc1cc(F)c(Nc2nc(-c3ccc4c(c3)N([C@H]3C[C@@H](N5CCCCC5)C3)C(=O)C43CCN(C(=O)[C@H]4CC[C@@H](C(=O)N5CCC(Nc6cccc7c6C(=O)N(C6CCC(=O)NC6=O)C7=O)CC5)CC4)CC3)cc3ncn(C(C)C)c23)cc1C(=O)NC(C)C` (stereo partly drawn) [Example 50, 4-fluoro-2-methyl-5-[(6-{2-oxo-1-[(1s,3s)-3-(piperidin-1-yl)cyclobutyl]-1′-[(1S,4s)-4-[4-({2-[2,6-dioxopiperidin-3-yl]-1,3-dioxo-2,3-dihydro-1H-isoindol-4-yl}amino)piperidine-1-carbonyl]cyclohexanecarbonyl]-1,2-dihydrospiro[indole-3,4′-piperidin]-6-yl}-3-(propan-2-yl)-3H-imidazo[4,5-c]pyridin-4-yl)amino]-N-(propan-2-yl)benzamide] the value was 45 to 65%.
